No end group written: not given here.

For this test, the system named is cells of rat pituitary glands. In words: in vitro GH release from cultured rat pituitary cells, side-by-side with synthetic hGRF(1-40)-OH standard, ir GH by radioimmunoassay. Format: cell-based. As to conditions: equimolar concentrations; rat pituitary cell cultures; 4 hours incubation; immunoreactive GH in culture medium. The procedure:
As an example of testing the effectiveness of the synthetic peptide of Example I to promote the release of growth hormone, in vitro assays are carried out using synthetic hGRF(1-40)-OH as a standard in side-by-side comparison with equimolar concentrations of the various other analogs and fragments synthesized. Cultures are used which include cells of rat pituitary glands removed four days previous to testing. Cultures which are considered optimal for the secretion of growth hormone are used for the comparative testing, in the general manner described in Vale et al. Endocrinology, 91, 562-572 (1972) and as more particularly described in Vale et al., Endocrinology, 112, 1553-1555 (1983). Incubation with the substance to be tested is carried out for 4 hours, and aliquots of the culture medium are removed and processed to measure their respective content of immunoreactive GH(ir GH) by a well-characterized radioimmunoassay.

With “YADAIFSSAYRRLLAQLASRRLLQELLAR [Example II, [Ser^7,8,19, Ala^9,15,18,28, Arg^12,21, Leu^13,26,27]-hGRF(1-29)-OH]”, the “potency to promote the release of growth hormone relative to the hpGRF(1-40)-OH standard” value is reported as “equivalent to the hpGRF(1-40)-OH standard”. On to “YADAIFSSAYRRLLAQLASRRLLQELLAR-NH2 [Example I, [Ser^7,8,19, Ala^9,15,18,28, Arg^12,21, Leu^13,26,27]-hGRF(1-29)-NH2]”, for which the “potency to promote the release of growth hormone relative to the hpGRF(1-40)-OH standard” value was “equivalent to the hpGRF(1-40)-OH standard”.

Values taken from patent US4689318A, “GRF analogs” (The Salk Institute for Biological Studies, priority 1985, dated 1987).
